Reference: patent US20140088103A1, “(FUSED RING ARYLAMINO AND HETEROCYCLYLAMINO) PYRIMIDINYL AND 1,3,5-TRIAZINYL BENZIMIDAZOLES, PHARMACEUTICAL COMPOSITIONS THEREOF, AND THEIR USE IN TREATING PROLIFERATIVE DISEASES” (MEI PHARMA, INC., priority 2011, published 2014)
Each block holds one compound with its values, some of them ahead of it.

Tests used:
PI3K alpha (p110α) = target: T1, PI3K alpha (p110α) (Homo sapiens, UniProt P42336); assay: Luciferase-based luminescence assay (Kinase GLO), PI3K alpha; format: biochemical; conditions: 1.65 nM enzyme, 50 μM PIP2, 25 μM ATP, 1 hour reaction
T1 construct: purchased Invitrogen Corp., Carlsbad, Calif., USA
T1 sequence (P42336 whole entry): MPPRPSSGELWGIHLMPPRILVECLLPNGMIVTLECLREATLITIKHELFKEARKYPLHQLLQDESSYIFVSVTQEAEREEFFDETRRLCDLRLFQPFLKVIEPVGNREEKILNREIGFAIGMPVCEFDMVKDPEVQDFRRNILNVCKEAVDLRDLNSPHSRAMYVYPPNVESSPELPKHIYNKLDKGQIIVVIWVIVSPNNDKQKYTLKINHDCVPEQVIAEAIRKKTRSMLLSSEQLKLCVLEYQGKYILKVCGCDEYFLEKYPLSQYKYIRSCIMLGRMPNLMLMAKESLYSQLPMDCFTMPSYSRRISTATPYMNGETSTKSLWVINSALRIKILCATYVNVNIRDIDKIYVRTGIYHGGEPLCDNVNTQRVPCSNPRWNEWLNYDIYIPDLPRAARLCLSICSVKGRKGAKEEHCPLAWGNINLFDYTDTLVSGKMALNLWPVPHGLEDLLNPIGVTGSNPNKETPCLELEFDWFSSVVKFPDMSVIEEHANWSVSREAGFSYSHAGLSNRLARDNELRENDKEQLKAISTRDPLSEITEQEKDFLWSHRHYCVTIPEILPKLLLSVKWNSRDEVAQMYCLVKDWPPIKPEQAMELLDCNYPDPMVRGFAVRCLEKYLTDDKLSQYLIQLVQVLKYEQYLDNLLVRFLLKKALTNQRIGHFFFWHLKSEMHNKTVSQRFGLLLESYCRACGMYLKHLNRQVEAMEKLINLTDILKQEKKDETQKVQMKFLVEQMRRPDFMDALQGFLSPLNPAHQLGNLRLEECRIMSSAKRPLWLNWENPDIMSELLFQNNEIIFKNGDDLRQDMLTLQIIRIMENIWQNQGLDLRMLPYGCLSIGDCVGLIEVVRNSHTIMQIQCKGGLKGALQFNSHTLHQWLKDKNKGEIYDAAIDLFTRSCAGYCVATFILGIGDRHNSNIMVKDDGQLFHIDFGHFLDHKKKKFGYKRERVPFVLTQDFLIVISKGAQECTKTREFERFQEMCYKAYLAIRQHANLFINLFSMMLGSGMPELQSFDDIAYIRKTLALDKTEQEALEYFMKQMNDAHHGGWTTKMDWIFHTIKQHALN
T1 sequence (P27986 whole entry partner): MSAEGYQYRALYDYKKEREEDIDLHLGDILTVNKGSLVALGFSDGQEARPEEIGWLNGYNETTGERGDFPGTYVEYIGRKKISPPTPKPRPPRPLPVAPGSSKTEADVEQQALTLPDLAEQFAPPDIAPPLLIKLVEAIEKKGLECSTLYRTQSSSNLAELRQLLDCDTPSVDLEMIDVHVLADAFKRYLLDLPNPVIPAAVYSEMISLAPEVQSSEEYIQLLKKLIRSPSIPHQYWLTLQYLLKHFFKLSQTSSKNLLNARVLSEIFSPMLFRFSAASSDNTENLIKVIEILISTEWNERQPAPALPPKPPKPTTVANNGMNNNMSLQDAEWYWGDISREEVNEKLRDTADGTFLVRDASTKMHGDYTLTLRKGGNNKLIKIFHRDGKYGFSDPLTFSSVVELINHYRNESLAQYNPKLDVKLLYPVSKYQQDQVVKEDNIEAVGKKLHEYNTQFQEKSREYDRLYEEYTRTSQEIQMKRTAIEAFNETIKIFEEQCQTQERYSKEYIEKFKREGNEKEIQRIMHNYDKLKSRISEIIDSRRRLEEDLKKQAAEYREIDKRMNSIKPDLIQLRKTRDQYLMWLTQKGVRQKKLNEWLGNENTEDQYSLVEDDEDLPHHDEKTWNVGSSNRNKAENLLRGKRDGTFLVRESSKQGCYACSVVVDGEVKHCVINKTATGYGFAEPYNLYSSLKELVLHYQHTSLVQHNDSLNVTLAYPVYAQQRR
Experimental: (§1) PI3K catalyzes the conversion of phosphatidylinositol-4,5-bisphosphate (PIP2) and ATP to phosphatidylinositol-3,4,5-trisphosphate (PIP3) and ADP. PI3K enzymatic activity was determined by measuring the amount of ATP consumed following the kinase reaction using a luciferase-based luminescence assay (Kinase GLO®, Promega Corp., Madison, Wis., USA) in a reaction buffer. The reaction buffer contained 50 mM HEPES, pH 7.5, 3 mM MgCl2, 1 mM EGTA, 100 mM NaCl, 0.03% CHAPS, and 2 mM DTT. Compounds for testing were dissolved and serially diluted in 100% DMSO (total of 10 concentrations), and then diluted 1:25 in the reaction buffer. PI3K enzyme solutions were prepared by diluting PI3K alpha (Invitrogen Corp., Carlsbad, Calif., USA) or PI3K delta (Millipore, Billerica, Mass., USA) in the reaction buffer to 4× the final assay concentration. The final concentrations of enzymes were 1.65 nM and 6.86 nM for PI3K alpha and PI3K delta, respectively. A substrate solution was prepared by mixing PIP2 and ATP in reaction buffer at 2× the final assay concentration. The final concentrations were 50 μM and 25 μM for PIP2 and ATP, respectively. To individual wells of white low volume 384-well assay plates were added 2.5 μl each of the compound and kinase mixtures, followed by shaking. The reactions were started by adding 5 μl of substrate mixture per well and shaking. The assay plates were covered and reactions were allowed to proceed for 1 hour (PI3K alpha) or 2 hours (PI3K delta), after which 10 μl of Kinase GLO® reagent was added. The plates were briefly centrifuged and incubated for 10 minutes, after which luminescence was measured using a FlexStation plate reader (Molecular Devices, Sunnyvale, Calif., USA). IC50 values were determined by curve fitting using Graphpad Prism software (Graphpad Software, La Jolla, Calif., USA).

PI3K delta (p110δ) = target: T2, PI3K delta (p110δ) (Homo sapiens, UniProt O00329); assay: Luciferase-based luminescence assay (Kinase GLO), PI3K delta; format: biochemical; conditions: for IC50: 6.86 nM enzyme, 50 μM PIP2, 25 μM ATP, 2 hours reaction; for α/δ ratio: ratio of IC50 against PI3Kα over IC50 against PI3Kδ
T2 construct: purchased Millipore, Billerica, Mass., USA
T2 sequence (O00329 whole entry): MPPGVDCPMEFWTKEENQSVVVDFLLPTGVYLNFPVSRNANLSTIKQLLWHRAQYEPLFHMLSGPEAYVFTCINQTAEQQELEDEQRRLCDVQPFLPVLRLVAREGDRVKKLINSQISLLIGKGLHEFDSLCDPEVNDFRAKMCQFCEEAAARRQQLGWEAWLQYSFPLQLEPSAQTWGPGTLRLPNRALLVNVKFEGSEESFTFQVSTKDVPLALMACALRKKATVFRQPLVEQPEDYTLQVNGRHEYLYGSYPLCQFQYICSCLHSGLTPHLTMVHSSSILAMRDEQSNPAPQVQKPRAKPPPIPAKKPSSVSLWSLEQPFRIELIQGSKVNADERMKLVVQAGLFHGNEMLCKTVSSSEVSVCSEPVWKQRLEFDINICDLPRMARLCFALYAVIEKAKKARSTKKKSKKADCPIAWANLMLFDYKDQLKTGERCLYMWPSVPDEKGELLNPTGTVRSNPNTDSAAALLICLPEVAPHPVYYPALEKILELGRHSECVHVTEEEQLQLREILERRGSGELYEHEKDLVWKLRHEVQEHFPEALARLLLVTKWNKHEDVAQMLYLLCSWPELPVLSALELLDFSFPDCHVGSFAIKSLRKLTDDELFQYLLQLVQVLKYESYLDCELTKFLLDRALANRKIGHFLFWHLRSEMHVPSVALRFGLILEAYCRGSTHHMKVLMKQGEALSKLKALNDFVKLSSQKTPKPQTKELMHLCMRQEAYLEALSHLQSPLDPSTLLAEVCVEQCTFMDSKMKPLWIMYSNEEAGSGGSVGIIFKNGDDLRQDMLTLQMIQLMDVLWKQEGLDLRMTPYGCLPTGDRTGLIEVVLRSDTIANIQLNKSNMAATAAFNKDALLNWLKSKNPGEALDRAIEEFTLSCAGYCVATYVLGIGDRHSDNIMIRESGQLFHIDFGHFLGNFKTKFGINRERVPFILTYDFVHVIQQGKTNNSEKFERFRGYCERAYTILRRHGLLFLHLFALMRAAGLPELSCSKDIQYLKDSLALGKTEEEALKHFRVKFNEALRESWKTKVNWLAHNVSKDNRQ
T2 sequence (P27986 whole entry partner): as the sequence (P27986 whole entry partner) above
Experimental: as §1

SMILES: FC(F)c1nc2ccccc2n1-c1nc(NC2CCCc3ccccc32)nc(N2CCOCC2)n1 (stereo not drawn) [Compound A1, 4-(2-(difluoromethyl)-1H-benzo[d]imidazol-1-yl)-6-morpholino-N-(1,2,3,4-tetrahydronaphthalen-1-yl)-1,3,5-triazin-2-amine]
IC50 (PI3K alpha (p110α)): > 500 nM | IC50 (PI3K delta (p110δ)): 100 to 200 nM | α/δ ratio (PI3K delta (p110δ)): A′ (A′ represents a ratio of greater than 8)

SMILES: FC(F)c1nc2ccccc2n1-c1nc(N[C@H]2CCCc3ccccc32)nc(N2CCOCC2)n1 [Compound A2, (S)-4-(2-(difluoromethyl)-1H-benzo[d]imidazol-1-yl)-6-morpholino-N-(1,2,3,4-tetrahydronaphthalen-1-yl)-1,3,5-triazin-2-amine]
IC50 (PI3K alpha (p110α)): > 500 nM | IC50 (PI3K delta (p110δ)): ≤ 100 nM | α/δ ratio (PI3K delta (p110δ)): A′ (A′ represents a ratio of greater than 8)

SMILES: FC(F)c1nc2ccccc2n1-c1nc(N[C@@H]2CCCc3ccccc32)nc(N2CCOCC2)n1 [Compound A3, (R)-4-(2-(difluoromethyl)-1H-benzo[d]imidazol-1-yl)-6-morpholino-N-(1,2,3,4-tetrahydronaphthalen-1-yl)-1,3,5-triazin-2-amine]
IC50 (PI3K alpha (p110α)): > 500 nM | IC50 (PI3K delta (p110δ)): > 500 nM | α/δ ratio (PI3K delta (p110δ)): B′ (B′ represents a ratio of no less than 4 but no greater than 8)

SMILES: FC(F)c1nc2ccccc2n1-c1nc(NC2CCc3ccccc32)nc(N2CCOCC2)n1 (stereo not drawn) [Compound A4, 4-(2-(difluoromethyl)-1H-benzo[d]imidazol-1-yl)-N-(2,3-dihydro-1H-inden-1-yl)-6-morpholino-1,3,5-triazin-2-amine]
IC50 (PI3K alpha (p110α)): > 500 nM | IC50 (PI3K delta (p110δ)): ≤ 100 nM | α/δ ratio (PI3K delta (p110δ)): A′ (A′ represents a ratio of greater than 8)

Further lines, with some results ahead:

IC50 (PI3K alpha (p110α)): > 500 nM | IC50 (PI3K delta (p110δ)): 100 to 200 nM
SMILES: FC(F)c1nc2ccccc2n1-c1nc(N[C@H]2CCc3ccccc32)nc(N2CCOCC2)n1 [Compound A5, (S)-4-(2-(difluoromethyl)-1H-benzo[d]imidazol-1-yl)-N-(2,3-dihydro-1H-inden-1-yl)-6-morpholino-1,3,5-triazin-2-amine]
α/δ ratio (PI3K delta (p110δ)): A′ (A′ represents a ratio of greater than 8)

IC50 (PI3K alpha (p110α)): > 500 nM | IC50 (PI3K delta (p110δ)): 200 to 500 nM
SMILES: FC(F)c1nc2ccccc2n1-c1nc(N[C@@H]2CCc3ccccc32)nc(N2CCOCC2)n1 [Compound A6, (R)-4-(2-(difluoromethyl)-1H-benzo[d]imidazol-1-yl)-N-(2,3-dihydro-1H-inden-1-yl)-6-morpholino-1,3,5-triazin-2-amine]
α/δ ratio (PI3K delta (p110δ)): C′ (C′ represents a ratio of greater than 2 but less than 4)

IC50 (PI3K alpha (p110α)): > 500 nM | IC50 (PI3K delta (p110δ)): > 500 nM
SMILES: FC(F)c1nc2ccccc2n1-c1nc(NC2CCc3cc(Cl)ccc32)nc(N2CCOCC2)n1 (stereo not drawn) [Compound A7, N-(5-chloro-2,3-dihydro-1H-inden-1-yl)-4-(2-(difluoromethyl)-1H-benzo[d]imidazol-1-yl)-6-morpholino-1,3,5-triazin-2-amine]
α/δ ratio (PI3K delta (p110δ)): A′ (A′ represents a ratio of greater than 8)

IC50 (PI3K alpha (p110α)): > 500 nM | IC50 (PI3K delta (p110δ)): 200 to 500 nM
SMILES: FC(F)c1nc2ccccc2n1-c1nc(NC2CCc3ccc(Cl)cc32)nc(N2CCOCC2)n1 (stereo not drawn) [Compound A8, N-(6-chloro-2,3-dihydro-1H-inden-1-yl)-4-(2-(difluoromethyl)-1H-benzo[d]imidazol-1-yl)-6-morpholino-1,3,5-triazin-2-amine]
α/δ ratio (PI3K delta (p110δ)): A′ (A′ represents a ratio of greater than 8)

IC50 (PI3K alpha (p110α)): > 500 nM | IC50 (PI3K delta (p110δ)): 200 to 500 nM
SMILES: COc1ccc2c(c1)CCC2Nc1nc(N2CCOCC2)nc(-n2c(C(F)F)nc3ccccc32)n1 (stereo not drawn) [Compound A9, 4-(2-(difluoromethyl)-1H-benzo[d]imidazol-1-yl)-N-(5-methoxy-2,3-dihydro-1H-inden-1-yl)-6-morpholino-1,3,5-triazin-2-amine]
α/δ ratio (PI3K delta (p110δ)): C′ (C′ represents a ratio of greater than 2 but less than 4)

IC50 (PI3K alpha (p110α)): > 500 nM | IC50 (PI3K delta (p110δ)): 200 to 500 nM
SMILES: COc1ccc2c(c1)C(Nc1nc(N3CCOCC3)nc(-n3c(C(F)F)nc4ccccc43)n1)CC2 (stereo not drawn) [Compound A10, 4-(2-(difluoromethyl)-1H-benzo[d]imidazol-1-yl)-N-(6-methoxy-2,3-dihydro-1H-inden-1-yl)-6-morpholino-1,3,5-triazin-2-amine]
α/δ ratio (PI3K delta (p110δ)): C′ (C′ represents a ratio of greater than 2 but less than 4)

IC50 (PI3K alpha (p110α)): 100 to 200 nM | IC50 (PI3K delta (p110δ)): 100 to 200 nM
SMILES: FC(F)c1nc2ccccc2n1-c1nc(NCc2ccccc2)nc(N2CCOCC2)n1 [Ref. 1, N-benzyl-4-(2-(difluoromethyl)-1H-benzo[d]imidazol-1-yl)-6-morpholino-1,3,5-triazin-2-amine, reference compound]
α/δ ratio (PI3K delta (p110δ)): D′ (D′ represents a ratio of no greater than 2)
